This note sets out measurements from patent US4462991A, “Method of increasing oral absorption of polar bioactive agents” (INTERx Research Corp., priority 1982, dated 1984).

A short description of the data set: Percent bioavailability after intraduodenal injection in anesthetized rats, (AUC)0-90 min relative to i.v. The note with it: male, Sprague-Dawley, rat, in vivo, other: intraduodenal injection, 2.5 mg per animal, pH 5, Control (no adjuvant), intraduodenal injection 0.25 ml, drug 10 mg/ml, pH 5, ionic strength 0.3, AUC 0-90 min vs i.v., read-out: Percent Bioavailability (% BA). As for the experimental part:
The following tests were run showing Percent Bioavailability (% BA)
The above tests were done according to the following protocol:
Animals: Male Sprague-Dawley rats (200-250 g)
Anesthesia: Ethyl carbamate by i.m. injection
Blood 0.6 ml from external jugular vein at
(AUC)o^90 calculated from summation
For the oral test an intraduodenal injection 1.0 cm distal to the pylorus was done . The volume of the injection was 0.25 ml at 0.3 ionic strength (adjusted with sodium chloride) and a pH of 5.
The drug was administered at 10 mg/ml unless otherwise noted and the adjuvant at 20 mg/ml unless otherwise noted.
The (AUC)i.v. was determined for each drug, based on the mean value from 3-6 animals.

The bioavailability is dose-corrected exposure relative to a reference, in per cent.

As to `CC(C)[C@@H]1NC(=O)[C@H](CCCCN)NC(=O)[C@@H](Cc2c[nH]c3ccccc23)NC(=O)[C@H](Cc2ccc(O)cc2)NC(=O)[C@H](C)N(C)C(=O)[C@H](Cc2ccccc2)NC1=O` [Cyclo-(N-Me-Ala-Tyr-D-Trp-Lys-Val-Phe)], the bioavailability amounted to 1%.
